Source: US12410157B2, “Compound useful as toll-like receptor 7 activation inhibitor” (TOYAMA PREFECTURAL UNIVERSITY, priority 2020, dated 2025)
Where a name gives a salt, the structure may show the parent alone. Read-outs that look alike come from different tables or passages of the source.

Biological target: T1, mouse TLR7 (Mus musculus, UniProt P58681)
T1 construct: expressed in transfected cells; host or cells: Ba/F3 cells (provided by Prof. Kensuke Miyake, University of Tokyo)
T1 sequence (P58681 27-1050): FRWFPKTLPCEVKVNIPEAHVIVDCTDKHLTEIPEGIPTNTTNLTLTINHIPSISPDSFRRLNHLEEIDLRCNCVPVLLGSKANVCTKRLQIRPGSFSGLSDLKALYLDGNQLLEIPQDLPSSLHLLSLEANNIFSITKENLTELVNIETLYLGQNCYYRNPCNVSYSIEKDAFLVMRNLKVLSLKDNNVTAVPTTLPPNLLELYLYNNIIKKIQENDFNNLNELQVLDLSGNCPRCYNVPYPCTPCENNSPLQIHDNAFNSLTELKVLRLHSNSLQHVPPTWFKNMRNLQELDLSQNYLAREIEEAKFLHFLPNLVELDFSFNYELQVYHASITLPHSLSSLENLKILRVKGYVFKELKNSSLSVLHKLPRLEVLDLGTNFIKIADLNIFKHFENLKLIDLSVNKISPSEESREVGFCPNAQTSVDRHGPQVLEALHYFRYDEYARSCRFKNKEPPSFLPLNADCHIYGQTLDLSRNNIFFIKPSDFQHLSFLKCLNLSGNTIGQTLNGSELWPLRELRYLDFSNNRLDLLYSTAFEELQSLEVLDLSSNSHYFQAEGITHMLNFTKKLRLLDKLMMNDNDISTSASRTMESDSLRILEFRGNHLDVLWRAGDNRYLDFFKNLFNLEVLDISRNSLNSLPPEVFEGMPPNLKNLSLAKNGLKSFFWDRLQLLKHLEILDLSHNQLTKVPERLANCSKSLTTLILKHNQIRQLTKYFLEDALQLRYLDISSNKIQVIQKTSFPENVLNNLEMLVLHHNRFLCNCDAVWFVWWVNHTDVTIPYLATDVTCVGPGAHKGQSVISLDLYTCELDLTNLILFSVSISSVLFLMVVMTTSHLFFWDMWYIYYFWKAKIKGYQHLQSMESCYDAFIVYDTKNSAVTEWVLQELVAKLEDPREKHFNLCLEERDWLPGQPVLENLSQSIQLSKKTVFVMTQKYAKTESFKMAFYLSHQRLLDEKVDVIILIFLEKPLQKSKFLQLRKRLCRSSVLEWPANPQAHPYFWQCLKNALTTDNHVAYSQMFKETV
Test: Inhibition of TLR7 activation in mouse TLR7-expressing NF-κB-GFP reporter Ba/F3 cells
Type: cell-based
Details: for TLR7 activation inhibitory activity, comparison in words: from IC50 of Table 3 / Table 5
Description: Mouse TLR7-expressing reporter cells (Ba/F3 cells) were used to evaluate inhibition of TLR7 activation in each derivative and CB-7. These cells were provided by Professor Kensuke Miyake (Department of Infection Genetics, Institute of Medical Science, University of Tokyo). These cells have been transfected with a reporter gene that connects GFP gene downstream of the promoter region of NF-κB. Therefore, the expression of GFP is enhanced by the addition of a ligand for TLR7 expressed by the cells. The fluorescence intensity of GFP was attenuated by the addition of each derivative, and the inhibition of TLR7 activation by each derivative was evaluated as an indicator.
Loxoribine (Alexis Biochemicals) was used as the ligand for mouse TLR7. Gardiquimod (Invivogen) was used as the ligand for human TLR7.
Ba/F3 cells cultured in RPMI 1640 medium containing 10% (v/v) fetal calf serum (FCS), 50 U/mL penicillin, 50 μg/mL streptomycin, 2 mM L-glutamine, […] 2-mercaptoethanol, 1 ng/mL interleukin-3 were aliquoted into 96-well plates so that the number of cells per well was 1.0×10^5 cells/100 μL. 50 μL of each derivative or CB-7, prepared to final concentrations of 1, 5, 10, 25, 50, and 100 µM, was added to each well. 96-well plates were incubated at 37° C. for 30 minutes in the presence of 5% CO2. Next, 250 μg/mL Roxoribin was added to each well and incubated for 18 hours. At the end of incubation, cells were washed with PBS (FACS buffer) containing 2.5% (v/v) FCS and suspended in 200 μL of FACS buffer containing 25 μg/mL […] for each cell. GFP fluorescence intensities of the cells were analyzed by flow cytometry. Flow cytometry measurement was performed on a FACSCanto™ II (Becton Dickinson) and data were analyzed with FlowJo software (Tree Star). The MFI (%) upon stimulation with roxoribin in the presence of […] derivatives or CB-7 was calculated using the MFI upon stimulation with roxoribin alone as 100%, and then IC50 (chemical compound concentration that inhibits activity by 50%) was calculated by logistic regression analysis.
The evaluation of the TLR7 activation inhibition by B2-24-4-5A·HCOOH was performed by the method described in Example 2. CB-7 and B2-24-4·HCl were used as controls.

[1] = Example 2, Ba/F3 reporter cells, loxoribine stimulation 18 hours, GFP MFI, read-out: IC50 of CB-7 derivatives with modified Areas a and b

IC50 [1] [nM] | IC50 (Example 5, Table 5, method of Example 2, read-out: IC50) [nM] | Structure (SMILES) | TLR7 activation inhibitory activity, comparison in words
> 10000 |  | C=C(C)[C@@H]1CCC(O)(CNS(C)(=O)=O)C[C@H]1c1ccc(OC)cc1 (stereo partly shown) [B2-3A] | 
> 100000 |  | C=C(C)[C@@H]1CC[C@]2(COC(=O)C2)C[C@H]1c1ccc2ccccc2c1 [B2-5A-1] | 
2570 |  | C=C(C)[C@@H]1CC[C@]2(COC(=O)C2)C[C@H]1c1ccc(COCCOC)cc1 [B2-5A-4] | higher TLR7 activation inhibitory activity than CB-7
210 |  | C=C(C)[C@@H]1CC[C@]2(COC(=O)C2)C[C@H]1c1ccc(CN(CC)CC)cc1 [B2-5A-6] | higher TLR7 activation inhibitory activity than CB-7
> 10000 |  | C=C(C)[C@@H]1CC[C@](CC(=O)O)(C(=O)OC)C[C@H]1c1ccc(OCCCO)cc1 [B2-5A-7-1] | 
2500 |  | C=C(C)[C@@H]1CC[C@]2(COC(=O)C2)C[C@H]1c1ccc(OCCCO)cc1 [B2-5A-7] | higher TLR7 activation inhibitory activity than CB-7
300 |  | C=C(C)[C@@H]1CC[C@]2(COC(=O)C2)C[C@H]1c1ccc(CN2CCCC2)cc1 [B2-5A-9] | higher TLR7 activation inhibitory activity than CB-7
> 100000 |  | C=C(C)[C@@H]1CC[C@@](COC)(CC(=O)O)C[C@H]1c1ccc(OC)cc1 [B2-5B] | 
9360 |  | C=C(C)[C@@H]1CC[C@@](CO)(CC(=O)N2CCOCC2)C[C@H]1c1ccc(OC)cc1 [B2-6-7] | 
> 100000 |  | C=C(C)[C@@H]1CC[C@@](CO)(CCN(C)C)C[C@H]1c1ccc(OC)cc1 [B2-6A] | 
> 100000 |  | C=C(C)[C@@H]1CC[C@@](CO)(CC(=O)N(C)C)C[C@H]1c1ccc(OC)cc1 [B2-6] | 
910 |  | C=C[C@]1(CO)CC[C@@H](C(=C)C)[C@H](c2ccc(COCCOC)cc2)C1 [B2-13] | higher TLR7 activation inhibitory activity than CB-7
> 50000 |  | C=C[C@]1(CO)CC[C@@H](C(=C)C)[C@H](c2ccc(-c3ccccc3)cc2)C1 [B2-18] | 
> 100000 |  | C=C[C@]1(CO)CC[C@@H](C(=C)C)[C@H](c2ccc3ccccc3c2)C1 [B2-19] | 
> 50000 |  | C=C[C@]1(CO)CC[C@@H](C(=C)C)[C@H](c2ccc(Oc3ccccc3)cc2)C1 [B2-21] | 
310 |  | C=C[C@]1(CC)CC[C@@H](C(=C)C)[C@H](c2ccc(CN(CC)CC)cc2)C1 [B2-22] | higher TLR7 activation inhibitory activity than CB-7
> 100000 |  | C=C[C@]1(CO)CC[C@@H](C(=C)C)[C@H](c2ccc(-c3ccc(OC)cc3)cc2)C1 [B2-23] | 
1050 |  | C=C[C@]1(CO)CC[C@@H](C(=C)C)[C@H](c2ccc(CN3CCC(F)(F)CC3)cc2)C1 [B2-24-1] | higher TLR7 activation inhibitory activity than CB-7
710 |  | C=C[C@]1(CO)CC[C@@H](C(=C)C)[C@H](c2ccc(CN3CCOCC3)cc2)C1 [B2-24-2] | higher TLR7 activation inhibitory activity than CB-7
1260 |  | C=C[C@]1(CO)CC[C@@H](C(=C)C)[C@H](c2ccc(CN3CC(F)(F)C3)cc2)C1 [B2-24-3] | higher TLR7 activation inhibitory activity than CB-7
87 | 167 | C=C[C@]1(CO)CC[C@@H](C(=C)C)[C@H](c2ccc(CN3CCNCC3)cc2)C1 [B2-24-4•HCl] | 
1260 |  | C=C[C@]1(CO)CC[C@@H](C(=C)C)[C@H](c2ccc(COCCCO)cc2)C1 [B2-26] | higher TLR7 activation inhibitory activity than CB-7
> 100000 |  | C=C[C@]1(C(=O)OC)CC[C@@H](C(=C)C)[C@H](c2ccc(O)cc2)C1 [B2-27] | 
1660 |  | C=CC[C@]1(CO)CC[C@@H](C(=C)C)[C@H](c2ccc(OCCCO)cc2)C1 [B2-28] | higher TLR7 activation inhibitory activity than CB-7

Structure (SMILES) | IC50 [1] [nM] | IC50 (Example 5, Table 5, method of Example 2, read-out: IC50) [nM] | TLR7 activation inhibitory activity, comparison in words
C=C(C)[C@@H]1CCC(O)(CN(C)C)C[C@H]1c1ccc(OC)cc1 (stereo partly shown) [B2-2A] | > 100000 |  | 
